Tested on: Key Grass and Sedge Weeds as well as Grass Crops
Experiment: Post-emergent Test II herbicidal activity (Table 6)
Assay type: in vivo
Conditions: post-emergence, 336 h, CYPES: yellow nutsedge (Cyperus esculentus), 70 g ai/ha, read-out: Visual Growth Reduction (%) 14 Days After Application, CYPES
Method in brief: (§1)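 Greenhouse post-emergent assay: seedlings (first/second true leaf) in Metro-Mix 360 were sprayed at 187 L/ha at a top rate plus twofold dilutions down to 1/16×; solvent-blank controls were included. Percent visual injury was read at 14 d.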

SMILES	pest or weed control at 70 g/ha [%]
COC(=O)c1nc(-c2ccc(Br)cc2F)c(F)c(N)c1Cl [Compound 52]	95 to 100

Same assay, conditions: post-emergence, 336 h, CYPES: yellow nutsedge (Cyperus esculentus), 140 g ai/ha, read-out: Visual Growth Reduction (%) 14 Days After Application, CYPES

SMILES	pest or weed control at 140 g/ha [%]
COC(=O)c1nc(-c2ccc(Br)cc2F)c(F)c(N)c1Cl [Compound 52]	95 to 100

Same assay, conditions: post-emergence, 336 h, DIGSA: crabgrass (Digitaria sanguinalis), 70 g ai/ha, read-out: Visual Growth Reduction (%) 14 Days After Application, DIGSA

SMILES	pest or weed control at 70 g/ha [%]
COC(=O)c1nc(-c2ccc(Br)cc2F)c(F)c(N)c1Cl [Compound 52]	85 to 94

Same assay, conditions: post-emergence, 336 h, DIGSA: crabgrass (Digitaria sanguinalis), 140 g ai/ha, read-out: Visual Growth Reduction (%) 14 Days After Application, DIGSA

SMILES	pest or weed control at 140 g/ha [%]
COC(=O)c1nc(-c2ccc(Br)cc2F)c(F)c(N)c1Cl [Compound 52]	85 to 94

Same assay, conditions: post-emergence, 336 h, ECHCG: barnyardgrass (Echinochloa crus-galli), 70 g ai/ha, read-out: Visual Growth Reduction (%) 14 Days After Application, ECHCG

SMILES	pest or weed control at 70 g/ha [%]
COC(=O)c1nc(-c2ccc(Br)cc2F)c(F)c(N)c1Cl [Compound 52]	60 to 74

Same assay, conditions: post-emergence, 336 h, ECHCG: barnyardgrass (Echinochloa crus-galli), 140 g ai/ha, read-out: Visual Growth Reduction (%) 14 Days After Application, ECHCG

SMILES	pest or weed control at 140 g/ha [%]
COC(=O)c1nc(-c2ccc(Br)cc2F)c(F)c(N)c1Cl [Compound 52]	75 to 84

Same assay, conditions: post-emergence, 336 h, ORYSA: rice (Oryza sativa), crop, 70 g ai/ha, read-out: Visual Growth Reduction (%) 14 Days After Application, ORYSA

SMILES	pest or weed control at 70 g/ha [%]
COC(=O)c1nc(-c2ccc(Br)cc2F)c(F)c(N)c1Cl [Compound 52]	0 to 29

Same assay, conditions: post-emergence, 336 h, ORYSA: rice (Oryza sativa), crop, 140 g ai/ha, read-out: Visual Growth Reduction (%) 14 Days After Application, ORYSA

SMILES	pest or weed control at 140 g/ha [%]
COC(=O)c1nc(-c2ccc(Br)cc2F)c(F)c(N)c1Cl [Compound 52]	0 to 29

Same assay, conditions: post-emergence, 336 h, SETFA: giant foxtail (Setaria faberi), 140 g ai/ha, read-out: Visual Growth Reduction (%) 14 Days After Application, SETFA

SMILES	pest or weed control at 140 g/ha [%]
COC(=O)c1nc(-c2ccc(Br)cc2F)c(F)c(N)c1Cl [Compound 52]	85 to 94

Same assay, conditions: post-emergence, 336 h, SORVU: grain sorghum (Sorghum vulgare), 70 g ai/ha, read-out: Visual Growth Reduction (%) 14 Days After Application, SORVU

SMILES	pest or weed control at 70 g/ha [%]
COC(=O)c1nc(-c2ccc(Br)cc2F)c(F)c(N)c1Cl [Compound 52]	95 to 100

Same assay, conditions: post-emergence, 336 h, SORVU: grain sorghum (Sorghum vulgare), 140 g ai/ha, read-out: Visual Growth Reduction (%) 14 Days After Application, SORVU

SMILES	pest or weed control at 140 g/ha [%]
COC(=O)c1nc(-c2ccc(Br)cc2F)c(F)c(N)c1Cl [Compound 52]	95 to 100

Same assay, conditions: post-emergence, 336 h, TRZSS (wheat, Triticum aestivum), crop, 70 g ai/ha, read-out: Visual Growth Reduction (%) 14 Days After Application, TRZSS

SMILES	pest or weed control at 70 g/ha [%]
COC(=O)c1nc(-c2ccc(Br)cc2F)c(F)c(N)c1Cl [Compound 52]	30 to 44

Same assay, conditions: post-emergence, 336 h, TRZSS (wheat, Triticum aestivum), crop, 140 g ai/ha, read-out: Visual Growth Reduction (%) 14 Days After Application, TRZSS

SMILES	pest or weed control at 140 g/ha [%]
COC(=O)c1nc(-c2ccc(Br)cc2F)c(F)c(N)c1Cl [Compound 52]	30 to 44

Same assay, conditions: post-emergence, 336 h, ZEAMX: maize, corn (Zea mays), crop, 70 g ai/ha, read-out: Visual Growth Reduction (%) 14 Days After Application, ZEAMX

SMILES	pest or weed control at 70 g/ha [%]
COC(=O)c1nc(-c2ccc(Br)cc2F)c(F)c(N)c1Cl [Compound 52]	95 to 100

Same assay, conditions: post-emergence, 336 h, ZEAMX: maize, corn (Zea mays), crop, 140 g ai/ha, read-out: Visual Growth Reduction (%) 14 Days After Application, ZEAMX

SMILES	pest or weed control at 140 g/ha [%]
COC(=O)c1nc(-c2ccc(Br)cc2F)c(F)c(N)c1Cl [Compound 52]	95 to 100

Tested on: not given
Experiment: not given
Conditions: not given

melting point [°C]	SMILES
146 to 148	COC(=O)c1nc(-c2ccc(Br)cc2F)c(F)c(N)c1Cl [Compound 52]

Tested on: Key Broadleaf Weed and Crop Species
Experiment: Post-emergent Test II herbicidal activity (Table 5)
Assay type: in vivo
Conditions: post-emergence, 336 h; ABUTH: velvetleaf (Abutilon theophrasti); application rate 70 g ai/ha; 14 days after application; read-out: Visual Growth Reduction (%) 14 Days After Application, ABUTH
Method in brief: as §1

SMILES	pest or weed control at 70 g/ha [%]
COC(=O)c1nc(-c2ccc(Br)cc2F)c(F)c(N)c1Cl [Compound 52]	95 to 100

Same assay, conditions: post-emergence, 336 h; ABUTH: velvetleaf (Abutilon theophrasti); application rate 140 g ai/ha; 14 days after application; read-out: Visual Growth Reduction (%) 14 Days After Application, ABUTH

SMILES	pest or weed control at 140 g/ha [%]
COC(=O)c1nc(-c2ccc(Br)cc2F)c(F)c(N)c1Cl [Compound 52]	95 to 100

Same assay, conditions: post-emergence, 336 h; AMARE: redroot pigweed (Amaranthus retroflexus); application rate 70 g ai/ha; 14 days after application; read-out: Visual Growth Reduction (%) 14 Days After Application, AMARE

SMILES	pest or weed control at 70 g/ha [%]
COC(=O)c1nc(-c2ccc(Br)cc2F)c(F)c(N)c1Cl [Compound 52]	95 to 100

Same assay, conditions: post-emergence, 336 h; AMARE: redroot pigweed (Amaranthus retroflexus); application rate 140 g ai/ha; 14 days after application; read-out: Visual Growth Reduction (%) 14 Days After Application, AMARE

SMILES	pest or weed control at 140 g/ha [%]
COC(=O)c1nc(-c2ccc(Br)cc2F)c(F)c(N)c1Cl [Compound 52]	95 to 100

Same assay, conditions: post-emergence, 336 h; BRSNN: oilseed-rape, canola (Brassica napus); application rate 70 g ai/ha; 14 days after application; read-out: Visual Growth Reduction (%) 14 Days After Application, BRSNN

SMILES	pest or weed control at 70 g/ha [%]
COC(=O)c1nc(-c2ccc(Br)cc2F)c(F)c(N)c1Cl [Compound 52]	95 to 100

Same assay, conditions: post-emergence, 336 h; BRSNN: oilseed-rape, canola (Brassica napus); application rate 140 g ai/ha; 14 days after application; read-out: Visual Growth Reduction (%) 14 Days After Application, BRSNN

SMILES	pest or weed control at 140 g/ha [%]
COC(=O)c1nc(-c2ccc(Br)cc2F)c(F)c(N)c1Cl [Compound 52]	95 to 100

Same assay, conditions: post-emergence, 336 h; CHEAL: lambsquarters (Chenopodium album); application rate 70 g ai/ha; 14 days after application; read-out: Visual Growth Reduction (%) 14 Days After Application, CHEAL

SMILES	pest or weed control at 70 g/ha [%]
COC(=O)c1nc(-c2ccc(Br)cc2F)c(F)c(N)c1Cl [Compound 52]	95 to 100

Same assay, conditions: post-emergence, 336 h; CHEAL: lambsquarters (Chenopodium album); application rate 140 g ai/ha; 14 days after application; read-out: Visual Growth Reduction (%) 14 Days After Application, CHEAL

SMILES	pest or weed control at 140 g/ha [%]
COC(=O)c1nc(-c2ccc(Br)cc2F)c(F)c(N)c1Cl [Compound 52]	95 to 100

Same assay, conditions: post-emergence, 336 h; EPHHL: wild poinsettia (Euphorbia heterophylla); application rate 70 g ai/ha; 14 days after application; read-out: Visual Growth Reduction (%) 14 Days After Application, EPHHL

SMILES	pest or weed control at 70 g/ha [%]
COC(=O)c1nc(-c2ccc(Br)cc2F)c(F)c(N)c1Cl [Compound 52]	95 to 100

Same assay, conditions: post-emergence, 336 h; EPHHL: wild poinsettia (Euphorbia heterophylla); application rate 140 g ai/ha; 14 days after application; read-out: Visual Growth Reduction (%) 14 Days After Application, EPHHL

SMILES	pest or weed control at 140 g/ha [%]
COC(=O)c1nc(-c2ccc(Br)cc2F)c(F)c(N)c1Cl [Compound 52]	95 to 100

Same assay, conditions: post-emergence, 336 h; HELAN: sunflower (Helianthus annuus); application rate 70 g ai/ha; 14 days after application; read-out: Visual Growth Reduction (%) 14 Days After Application, HELAN

SMILES	pest or weed control at 70 g/ha [%]
COC(=O)c1nc(-c2ccc(Br)cc2F)c(F)c(N)c1Cl [Compound 52]	95 to 100

Same assay, conditions: post-emergence, 336 h; HELAN: sunflower (Helianthus annuus); application rate 140 g ai/ha; 14 days after application; read-out: Visual Growth Reduction (%) 14 Days After Application, HELAN

SMILES	pest or weed control at 140 g/ha [%]
COC(=O)c1nc(-c2ccc(Br)cc2F)c(F)c(N)c1Cl [Compound 52]	95 to 100

Same assay, conditions: post-emergence, 336 h; VIOTR: wild pansy (Viola tricolor); application rate 70 g ai/ha; 14 days after application; read-out: Visual Growth Reduction (%) 14 Days After Application, VIOTR

SMILES	pest or weed control at 70 g/ha [%]
COC(=O)c1nc(-c2ccc(Br)cc2F)c(F)c(N)c1Cl [Compound 52]	95 to 100

Same assay, conditions: post-emergence, 336 h; VIOTR: wild pansy (Viola tricolor); application rate 140 g ai/ha; 14 days after application; read-out: Visual Growth Reduction (%) 14 Days After Application, VIOTR

SMILES	pest or weed control at 140 g/ha [%]
COC(=O)c1nc(-c2ccc(Br)cc2F)c(F)c(N)c1Cl [Compound 52]	95 to 100

From patent publication US9113629B2, “4-amino-6-(4-substituted-phenyl)-picolinates and 6-amino-2-(4-substituted-phenyl)-pyrimidine-4-carboxylates and their use as herbicides” (DOW AGROSCIENCES LLC, priority 2013, dated 2015)
